Laboratory results: patent publication US5089623A, “Certain imidate insecticides” (Imperial Chemical Industries Plc, priority 1990, dated 1992)

Experiments:
Type in all cases: in vivo
[1] = tested on: Housefly [Musca domestica]; test: Housefly insecticidal test (HF); conditions: per 25 female houseflies, 48 hours
[2] = tested on: Tobacco Budworm [Heliothis virescens (Fabricius)] eggs; test: Tobacco budworm egg test (TBW-E); conditions: percent in solution
[3] = tested on: Beet Armyworm (Spodoptera exigua); test: Beet armyworm test (BAW); conditions: second-instar larvae, five days, percent in solution
Protocol: (§1) The compounds in Tables 1 and 2 above were tested for insecticidal activity using the following testing procedures. LC50 values, based on the results of these tests and calculated according to dosage-mortality curves, are expressed in Table 3.
Beet Armyworm (Spodoptera exigua)
Test compounds were diluted in a 50-50 acetone-water solution. Young leaves of sugar beets (Beta vulgaris) were immersed in the test solutions for 2-3 seconds and placed on a wire screen to dry. The dried leaves were placed in petri dishes containing a moistened filter paper and infested with five second-instar beet armyworm larvae. The dishes were placed in a high humidity chamber. Mortality of the larvae was recorded five days later. Test concentrations ranged from 0.1% downward. The LC-50 values are expressed below in Table 3 under the heading "BAW" in terms of percent of the test compound in solution.

[4] = tested on: Cabbage Looper [Trichoplusia ni (Hubner)]; test: Cabbage looper test (CL); conditions: second-instar larvae, 3-5 days, percent in solution
[5] = tested on: Aster Leafhopper [Macrosteles fascifrens (Stal)]; test: Aster leafhopper test (LH); conditions: adults/nymphs, 48 hours, percent in solution
[6] = tested on: Maize weevil [Sitophilus Zeamais (Motschulsky)]; test: Maize weevil test (MW); conditions: adult weevils, treated corn seeds, 48 hours, percent in solution
Summary of the method: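 Adult weevils (10) were placed with four corn seeds that had been dipped 2-3 s in compound dissolved in 50:50 acetone:water, then dried, and held at about 25° C. Mortality was scored at 48 h. LC50 was taken from dosage-mortality curves and expressed as percent compound in solution, from a 0.01% top concentration.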

[7] = tested on: Tobacco Budworm [Heliothis virescens (Fabricius)]; test: Tobacco budworm contact test (TBW-C); conditions: second-instar larvae, 5 days, percent in solution
Protocol: as §1
Tobacco Budworm [Heliothis virescens (Fabricius)]
(a) Contact: Test compounds were diluted in a 50-50 acetonewater solution. Cotton (Gossypium sp.) cotyledons were immersed in the test solutions for 2-3 seconds and placed on a wire screen to dry. The dried leaves were placed in petri dishes containing a moistened piece of filter paper and infested with 5 second-instar tobacco budworm larvae. The dishes were placed in a high humidity chamber for 5 days, and percent mortality of the larvae recorded. Test concentrations ranged from 0.1% downward. The LC-50 values are expressed below in Table 3 under the heading "TBW-C" in terms of percent of the test compound in the solution.

Row | Compound | LC50 HF [1] | LC50 TBW E [2] | LC50 BAW [3] | LC50 CL [4] | LC50 LH [5] | LC50 MW [6] | LC50 TBW C [7]
1 | O=[N+]([O-])c1cccc(N=C(OCc2cccc(Oc3ccccc3)c2)C(Cl)Cl)c1 [Compound 174] | 17 µg | > 0.1% | 0.1% | 0.03% |  |  | 
2 | CC(C)C(=Nc1ccc(Cl)c(Cl)c1)OCc1cccc(Oc2ccccc2)c1 [Compound 14] | 40 µg |  | 0.005% | 0.004% | 0.001% | 0.01% | 
3 | CC(C)C(=Nc1ccc(F)c(Cl)c1)OCc1cccc(Oc2ccc(Cl)cc2)n1 [Compound 463] | 8 µg | 0.0075% | 0.0024% | 0.00009% | 0.0003% | 0.01% | 
4 | CC(C)C(=Nc1ccc(Cl)cc1)OCc1ccc(F)c(Oc2ccccc2)c1 [Compound 23] | 5 µg | 0.017% | 0.001% | 0.0005% |  |  | 
5 | CC(C)C(=Nc1ccc(F)c(Cl)c1F)OCc1cccc(Oc2ccccc2)c1 [Compound 332] | 7 µg | 0.015% | 0.0012% | 0.00045% |  |  | 0.00075%
6 | Cc1ccc(N=C(OCc2cccc(Oc3ccccc3)c2)C(Cl)Cl)cc1 [Compound 139] | 4.2 µg | 0.05% | 0.007% | 0.015% |  |  | 0.005%
7 | CC(C)C(=Nc1cccc(C(F)(F)F)c1)OCc1cccc(Oc2ccccc2)c1 [Compound 67] | 15 µg | 0.01% | 0.006% | 0.001% | 0.00027% |  | 
8 | CC(C)C(=Nc1ccc(F)c(Cl)c1)OCc1cc(Oc2ccc(F)cc2)c(F)cc1F [Compound 343] | 40 µg | > 0.1% | > 0.1% | 0.00027% |  | > 0.01% | 0.00025%
9 | O=[N+]([O-])c1ccc(N=C(OCc2cccc(Oc3ccccc3)c2)C(Cl)Cl)cc1 [Compound 173] | 18 µg | > 0.1% | > 0.1% | 0.02% |  |  | > 0.1%
10 | CC(C)C(=Nc1ccc(F)c(Cl)c1F)OCc1cccc(Oc2ccc(Cl)cc2)n1 [Compound 500] | 16 µg | 0.02% | 0.002% | 0.00009% |  |  | 0.00075%
11 | Cc1c(Cl)cccc1N=C(OCc1cccc(Oc2ccccc2)c1)C(Cl)Cl [Compound 97] | 10 µg | 0.04% | 0.01% | 0.002% |  |  | 0.004%
12 | CC(C)C(=Nc1ccc2c(c1)OC(C)(C)O2)OCc1ccc(F)c(Oc2ccc(F)cc2)c1 [Compound 283] | 23 µg | 0.016% | 0.0013% | 0.00009% |  | > 0.01% | 0.0009%
13 | CC(C)C(=Nc1ccc(I)cc1)OCc1ccc(F)c(Oc2ccc(F)cc2)c1 [Compound 335] | 34 µg | 0.05% | > 0.1% | 0.00027% |  | > 0.01% | 0.00025%
14 | CC(C)C(=Nc1ccc(F)c(I)c1)OCc1ccc(F)c(Oc2ccc(Cl)cc2)c1 [Compound 326] | 25 µg | 0.03% | 0.004% | 0.00015% |  |  | 0.0005%
15 | CC(C)C(=Nc1ccc(Cl)c(Cl)c1)OCc1cccc(Oc2ccc(Cl)cc2)n1 [Compound 523] | 22 µg | > 0.1% |  | 0.00015% | > 0.05% | > 0.01% | 0.0002%
16 | CC(C)C(=Nc1ccc(Br)c(F)c1)OCc1ccc(F)c(Oc2ccc(F)cc2)c1 [Compound 282] | 16 µg | 0.02% | 0.0025% | 0.00007% |  | 0.008% | 0.0007%
17 | CC(C)C(=Nc1cccc(Cl)c1)OCc1cccc(Oc2ccc(F)cc2)c1 [Compound 194] | 10 µg | 0.04% |  | 0.0005% | 0.0005% | > 0.01% | 0.0017%
18 | CC(C)C(=Nc1ccc(F)cc1)OCc1ccc(F)c(Oc2ccccc2)c1 [Compound 53] | 2 µg | 0.02% | 0.003% | 0.0005% |  |  | 0.0025%
19 | Clc1ccccc1N=C(OCc1cccc(Oc2ccccc2)c1)C(Cl)Cl [Compound 34] | > 100 µg | > 0.1% | 0.015% | 0.015% |  |  | 0.01%
20 | CC(C)C(=Nc1cccc(Cl)c1)OCc1cccc(Oc2ccccc2)c1 [Compound 7] | 8 µg | 0.009% | 0.006% | 0.006% | 0.0002% |  | 
21 | CC(C)C(=Nc1ccc(C(F)(F)F)cc1)OCc1cccc(Oc2ccc(Cl)cc2)n1 [Compound 530] | 9.8 µg | 0.005% |  | 0.00027% | 0.05% | > 0.01% | 0.00005%
22 | C#CCc1c(F)c(F)c(COC(=Nc2ccc(F)c(Cl)c2)C(C)C)c(F)c1F [Compound 520] | 5.5 µg | > 0.1% |  | > 0.1% | 0.0003% | 0.0042% | 0.00075%
23 | CC(C)C(=Nc1ccc(F)c(C(F)(F)F)c1)OCc1ccc(F)c(Oc2ccc(Cl)cc2)c1 [Compound 297] | 23 µg | 0.025% |  | 0.00027% | 0.0001% | 0.0071% | 0.00075%
24 | CC(C)C(=Nc1ccc(F)cc1)OCc1cccc(Oc2ccccc2)c1 [Compound 46] | 7 µg | 0.016% | 0.006% | 0.003% | 0.002% |  | 
25 | CC(C)C(=Nc1cccc(C(F)(F)F)c1)OCc1cccc(Oc2ccc(F)cc2)c1 [Compound 202] | 18 µg | > 0.1% |  | 0.00024% | 0.0003% | > 0.01% | 0.0007%
26 | CC(C)C(=Nc1ccc(F)c(Cl)c1F)OCc1cccc(Oc2ccc(F)cc2)n1 [Compound 521] | 7.5 µg | > 0.1% |  | 0.00005% | 0.05% | 0.01% | 0.0005%
27 | CCC(C)C(=Nc1ccc(F)c(Cl)c1)OCc1cccc(Oc2ccccc2)c1 (stereo not shown) [Compound 122] | 37 µg | 0.05% | 0.01% | 0.0007% | > 0.05% |  | 
